EP3797781A1, “USE OF EC-7072 AND SYNERGIC COMPOSITIONS THEREOF IN TREATMENT OF CHRONIC LYMPHOCYTIC LEUKEMIA” (priority 2019, dated 2021)

Columns and labels:
[1] = tested on: healthy B cells; test: Viability of healthy B cells from healthy donors by DiOC6(3)/PI staining; type: cell-based, human; conditions: 200 nM, 24 hours; PBMCs from healthy donors (n = 20); Figure 1F
Protocol: Cell viability and apoptosis were evaluated by double-staining with the mitochondrial inner transmembrane potential (ΔΨm)-sensitive dye DiOC6(3) (3,3'-dihexyloxacarbocyanine iodide; Sigma-Aldrich) and the exclusion dye propidium iodide (PI; Immunostep), allowing identification of apoptotic [DiOC6(3)^low PI^-] and dead [PI^+] cells as per Proc. Natl. Acad. Sci. U.S.A. (2014) 111(8):3020-3025 and Methods Mol. Biol. (2016) 1419:1-16. Briefly, PBMCs were resuspended in culture medium containing 20 nM DiOC6(3) and incubated for 30 minutes at 37 °C. Then, PI (1 µg/mL) was added and cells were further incubated for 10 minutes at room temperature (RT). Cells were analyzed by flow cytometry considering DiOC6(3)^+PI^- cells as viable. In some experiments, apoptosis was evaluated by staining with Annexin V/PI. […]
The in vitro cytotoxic activity of EC-7072 against primary CLL cells was assessed by: • (i) incubating PBMCs isolated from patients with CLL (n = 13) following treatment with increasing concentrations of EC-7072 (0 - 400 nM) for 24 hours. Numbers of leukemia cells were evaluated by flow cytometry and normalized to their respective control (DMSO) condition for each individual patient to obtain percentage of leukemia cells (Figure 1A); • (ii) incubating PBMCs from patients with CLL (n = 10) with or without EC-7072 (100-400 nM) for 24 hours. […]

[2] = tested on: leukemia cells; test: Absolute leukemia cell number quantification by flow cytometry in PBMCs from patients with CLL; type: cell-based, human; conditions: 0 - 400 nM, 24 hours; PBMCs from patients with CLL (n = 13); dose-dependent; Figure 1A
Protocol: To evaluate absolute cell numbers, an equal volume of PKH26 reference microbeads (Sigma-Aldrich) was added to each sample after staining for immune subset identification. Microbeads (5x10^3) were acquired by flow cytometry and absolute numbers of each immune population within the sample were calculated. Normalized percentage values were calculated considering the control (DMSO)-treated cells as 100%.
The in vitro cytotoxic activity of EC-7072 against primary CLL cells was assessed by: • (i) incubating PBMCs isolated from patients with CLL (n = 13) following treatment with increasing concentrations of EC-7072 (0 - 400 nM) for 24 hours. Numbers of leukemia cells were evaluated by flow cytometry and normalized to their respective control (DMSO) condition for each individual patient to obtain percentage of leukemia cells (Figure 1A); • (ii) incubating PBMCs from patients with CLL (n = 10) with or without EC-7072 (100-400 nM) for 24 hours. Viability of leukemia cells was determined by cytofluorometric assessment of DiOC6(3)/PI staining and normalized to their respective control condition to obtain percentage viability (Figure 1B); • (iii) incubating PBMCs from patients with CLL (n = 10) with increasing concentrations of EC-7072 (0 - 400 nM) for 24 hours. […]

`CO[C@@H]([C@@H]1Cc2cc3cc(O[C@H]4C[C@@H](O[C@H]5C[C@@H](O)[C@H](O)[C@@H](C)O5)[C@H](O)[C@@H](C)O4)c(C)c(O)c3c(O)c2C(=O)[C@H]1O[C@H]1C[C@@H](O[C@H]2C[C@@H](O[C@H]3C[C@](C)(O)[C@H](O)[C@@H](C)O3)[C@@H](O)[C@@H](C)O2)[C@H](O)[C@@H](C)O1)[C@@H](O)C(C)=O` [EC-7072, mithramycin SK] was tested, and the “viability of healthy B cells” value [1] was “triggered death of normal B cells” and the leukemia cell numbers [2] was “significantly decreased”.
